Assays:
[1] = target: rat brain nicotinic receptor (α7 NAChR) (Rattus norvegicus (Rat), UniProt Q05941); assay type: binding
[2] = Metabolic stability assay in human liver microsomes (HLM); assay type: in vitro ADME; details: 1 μM
Experimental: (§1) Protocol 1: Studies were carried out in human and rat liver microsomes (“HLM” and “RLM,” respectively). Human and rat liver microsomes were purchased from BD Gentest. DMSO stocks were prepared for the test compounds. Aliquots of the DMSO solutions were diluted to 0.5 mM by acetonitrile, then further diluted by liver microsomes/buffer to 1.5 μM. 30 μL of 1.5 μM solutions were mixed with 15 μL of 6 mM NADPH, which had been pre-warmed to 37° C., at a final test compound concentration of 1 μM. The plates were kept in a 37° C. water bath for the duration of the experiment. At each time point (0, 5, 15, 30, 45 minutes), 135 μL of acetonitrile was added into corresponding wells. After the final time point was sampled, the plates were shaken at a vibrator (IKA, MTS 2/4) for 10 min (600 rpm/min) and then centrifuged at 5594 g for 15 min (Thermo Multifuge×3R). Aliquots of the supernatant were removed, diluted 1:1 into distilled water, and analyzed by LC-MS/MS. The peak area response ratio to internal standard (PARR) of the compounds at 5, 15, 30, 45 minutes was compared to the PARR at time 0 to determine the percent of test compound remaining at each time point. Half-lives were calculated using Excel software, fitting to a single-phase exponential decay equation.
(§2) Protocol 2: Studies were carried out in human and rat liver microsomes. Buffer solutions were prepared as follows: Buffer A: 1.0 L of 0.1 M monobasic Potassium Phosphate buffer containing 1.0 mM EDTA; Buffer B: 1.0 L of 0.1 M Dibasic Potassium Phosphate buffer containing 1.0 mM EDTA; Buffer C: 0.1 M Potassium Phosphate buffer, 1.0 mM EDTA, pH 7.4 by titrating 700 mL of buffer B with buffer A while monitoring with a pH meter.
(§3) Reference compound (Ketanserin) and test compound spiking solutions were prepared as follows: 500 μM spiking solution: add 10 μL of 10 mM DMSO stock solution into 190 μL ACN; 1.5 μM spiking solution in microsomes (0.75 mg/mL): add 1.5 μL of 500 μM spiking solution and 18.75 μL of 20 mg/mL liver microsomes into 479.75 μL of Buffer C.
(§4) NADPH stock solution (6 mM) was prepared by dissolving NADPH into buffer C.
(§5) Assay procedure: 30 μL of 1.5 μM spiking solution containing 0.75 mg/mL microsomes solution was dispensed to the wells designated for […]. The plate was pre-incubated at 37° C. for 10 minutes. 15 μL of NADPH stock solution (6 mM) was added to the wells designated as Time 45, and the timer was started. At 30 mM, 15 mM, and 5 mM, 15 μL NADPH stock solution (6 mM) was added to the wells, respectively. At the end of incubation (0 mM), 135 μL of ACN containing IS was added to all the wells. Then 15 μL of NADPH stock solution (6 mM) was added to the wells designated as Time 0. After quenching, the reaction mixtures were centrifuged at 3220 g for […]. Following centrifugation, 50 μL of the supernatant was transferred from each well into a 96-well sample plate containing 50 μL of ultra-pure water (Millipore) for LC/MS analysis. The peak area response (PARR) ratio to internal standard of the compounds at 5, 15, 30, and 45 minutes was compared to the PARR at time 0 to determine the percent of test compound remaining at each time point. Half-lives were calculated using Excel software, fitting to a single-phase exponential decay equation.

[3] = Human plasma stability; assay type: in vitro ADME; details: plasma
Experimental: Protocol 1: Studies were carried out in human plasma. All plasma was obtained from Bioreclamation and collected on sodium heparin. Plasma was adjusted to pH 7.4. A DMSO stock was first prepared for the test compound. An aliquot of the DMSO solution was dosed into 1 mL of plasma, which had been pre-warmed to 37° C., at a final test compound concentration of 1 μM. The vials were kept in a benchtop Thermomixer® for the duration of the experiment. Aliquots (100 μL) were taken at each time point (0, 15, 30, 60, and 120 minutes) and added to 96-well plates which had been pre-filled with 300 μL of acetonitrile. Samples were stored at 4° C. until the end of the experiment. After the final time point was sampled, the plate was mixed and then centrifuged at 3,000 rpm for 10 minutes. Aliquots of the supernatant were removed, diluted 1:1 into distilled water, and analyzed by LC-MS/MS. The peak area response ratio to internal standard (PARR) of the compound at 15, 30, 60 and 120 minutes was compared to the PARR at time 0 to determine the percent of test compound remaining at each time point. Half-lives were calculated using GraphPad software, fitting to a single-phase exponential decay equation.
Protocol 2: Studies were carried out in plasma. Plasma was prepared under approval of IRB and IACUC on sodium heparin. The pH of plasma was monitored and used within the range of pH 7.4 to pH 8.0. DMSO stocks were prepared for the test compounds. Aliquots of the DMSO solutions were diluted to 0.05 mM by 0.05 mM Sodium phosphate buffer with 0.5% BSA. Then 10 μL of 0.05 mM solutions were dosed into 90 μL of plasma in duplicates (n=2), which had been pre-warmed to 37° C., at a final test compound concentration of 5 μM. The plates were kept in a 37° C. water bath for the duration of the experiment. At each time point (0, 5, 15, 30, 45, 60, and 120 minutes), 400 μL of acetonitrile was added into corresponding wells. After the final time point was sampled, the plates were shaken at the vibrator (IKA, MTS 2/4) for 10 min (600 rpm/min) and then centrifuged at 5594 g for 15 min (Thermo Multifuge×3R). Aliquots of the supernatant were removed, diluted 1:1 into distilled water, and analyzed by LC-MS/MS. The peak area response ratio to internal standard (PARR) of the compounds at 5, 15, 30, 45, 60, and 120 minutes was compared to the PARR at time 0 to determine the percent of test compound remaining at each time point. Half-lives were calculated using Excel software, fitting to a single-phase exponential decay equation.

[4] = Metabolic stability assay in rat liver microsomes (RLM); assay type: in vitro ADME; details: 1 μM
Experimental: as §1, §2, §3, §4, §5

[5] = Protocol No. 1, human liver microsomes
[6] = Protocol No. 1, rat liver microsomes

Chain of rat brain nicotinic receptor (α7 NAChR) (Q05941 23-502 limits assumed): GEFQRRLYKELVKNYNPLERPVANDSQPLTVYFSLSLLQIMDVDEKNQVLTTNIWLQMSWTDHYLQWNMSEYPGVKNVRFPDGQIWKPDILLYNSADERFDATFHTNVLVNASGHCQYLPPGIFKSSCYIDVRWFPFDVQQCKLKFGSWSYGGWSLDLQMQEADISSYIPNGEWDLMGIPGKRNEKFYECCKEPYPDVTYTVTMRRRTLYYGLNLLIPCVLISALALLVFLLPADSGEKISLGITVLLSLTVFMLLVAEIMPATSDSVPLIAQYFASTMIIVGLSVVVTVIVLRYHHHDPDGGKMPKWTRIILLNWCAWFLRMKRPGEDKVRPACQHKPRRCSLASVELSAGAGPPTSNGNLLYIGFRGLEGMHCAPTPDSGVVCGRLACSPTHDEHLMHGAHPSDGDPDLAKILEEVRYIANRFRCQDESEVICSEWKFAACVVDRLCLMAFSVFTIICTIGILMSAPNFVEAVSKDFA

Compound | IC50 [1] [nM] | Ki [1] [nM] | HLM ([2]; human, microsomes) [mL/min/kg] | % Remaining @ 2 h ([3]; human, 2 h, 5 μM) [%] | RLM ([4]; rat, microsomes) [mL/min/kg] | HLM [2, 5] [mL/min/kg] | % Remaining @ 2 h ([3]; Protocol No. 2, 5 μM, 37° C.) [%] | RLM [4, 6] [mL/min/kg] | T1/2 ([3]; human) | T1/2 ([3]; Protocol No. 2, 5 μM, 37° C.) [h]
Cc1cc2c(C(=O)OCC34CCN(CC3)CC4)c[nH]c2cc1F [Compound 58, quinuclidin-4-ylmethyl 6-fluoro-5-methyl-1H-indole-3-carboxylate] | 1810 | 1550 | – | – | – | – | – | – | – | –
O=C(OCC12CCN(CC1)CC2)c1c[nH]c2cccc(C3CC3)c12 [Compound 61, Quinuclidin-4-ylmethyl 4-cyclopropyl-1H-indole-3-carboxylate] | 1890 | 1620 | 10.81 | 93.59 | 434.65 | – | – | – | – | –
Cl.O=C(OCC12CCN(CC1)CC2)c1c[nH]c2cc(F)cc(Cl)c12 [Compound 64, quinuclidin-4-ylmethyl 4-chloro-6-fluoro-1H-indole-3-carboxylate hydrochloride] | 337 | 291 | – | – | – | 2.7474 | 76.61 | 77.4932 | – | –
Cc1cc2[nH]cc(C(=O)OCC34CCN(CC3)CC4)c2cc1Cl.Cl [Compound 66, quinuclidin-4-ylmethyl 5-chloro-6-methyl-1H-indole-3-carboxylate hydrochloride] | 1190 | 1010 | – | – | – | 0 | 71.77 | 934.845 | – | –
O=C(OCC12CCN(CC1)CC2)c1c[nH]c2ccc(F)c(Br)c12 [Compound 67, quinuclidin-4-ylmethyl 4-bromo-5-fluoro-1H-indole-3-carboxylate] | 201 | 173 | 6.65 | 98.92 | 594.86 | – | – | – | – | –
Cc1ccc2[nH]cc(C(=O)OCC34CCN(CC3)CC4)c2c1Br [Compound 68, quinuclidin-4-ylmethyl 4-bromo-5-methyl-1H-indole-3-carboxylate] | 266 | 229 | 3.48 | 103.13 | 1271.39 | – | – | – | ∞ | –
COc1cc2c(C(=O)OCC34CCN(CC3)CC4)c[nH]c2cc1Cl [Compound 69, quinuclidin-4-ylmethyl 6-chloro-5-methoxy-1H-indole-3-carboxylate] | 394 | 340 | 8.8 | 78.66 | 238.87 | – | – | – | – | –
Cc1ccc2[nH]cc(C(=O)OCC34CCN(CC3)CC4)c2c1C [Compound 70, quinuclidin-4-ylmethyl 4,5-dimethyl-1H-indole-3-carboxylate] | 315 | 272 | 0 | 71.56 | 1349.06 | – | – | – | – | –
Cl.O=C(OCC12CCN(CC1)CC2)c1c[nH]c2cc(Cl)cc(Cl)c12 [Compound 71, quinuclidin-4-ylmethyl 4,6-dichloro-1H-indole-3-carboxylate hydrochloride] | 457 | 394 | – | – | – | 6.768 | 72.03 | 121.175 | – | –
COc1c(C)ccc2[nH]cc(C(=O)OCC34CCN(CC3)CC4)c12 [Compound 75, quinuclidin-4-ylmethyl 4-methoxy-5-methyl-1H-indole-3-carboxylate] | 52.5 | 45 | 5.749 | 120.98 | 474.267 | – | – | – | ∞ | –
COc1cc2c(C(=O)OCC34CCN(CC3)CC4)c[nH]c2cc1C#N [Compound 76, quinuclidin-4-ylmethyl 6-cyano-5-methoxy-1H-indole-3-carboxylate] | 643 | 552 | 20.5897 | 72.92 | 41.0701 | – | – | – | – | –
COc1cc(C#N)cc2[nH]cc(C(=O)OCC34CCN(CC3)CC4)c12 [Compound 77, quinuclidin-4-ylmethyl 6-cyano-4-methoxy-1H-indole-3-carboxylate] | 423 | 363 | 10.4452 | 71.03 | 87.668 | – | – | – | – | –
Cc1cc2c(C(=O)OCC34CCN(CC3)CC4)c[nH]c2cc1Cl [Compound 78, quinuclidin-4-ylmethyl 6-chloro-5-methyl-1H-indole-3-carboxylate] | 1130 | 970 | 0 | 77.57 | 679.777 | – | – | – | – | –
COc1cc2c(C(=O)OCC34CCN(CC3)CC4)c[nH]c2cc1C.Cl [Compound 79, quinuclidin-4-ylmethyl 5-methoxy-6-methyl-1H-indole-3-carboxylate hydrochloride] | – | – | – | – | – | 10.72 | 56.12 | 576.18 | – | –
O=C(OCC12CCN(CC1)CC2)c1c[nH]c2ccc3c(c12)OCCO3 [Compound 81, quinuclidin-4-ylmethyl 2,3-dihydro-7H-[1,4]dioxino[2,3-e]indole-9-carboxylate] | – | – | 5.94 | 70.89 | 75.96 | – | – | – | – | –
COc1cc2c(C(=O)OCC34CCN(CC3)CC4)c[nH]c2cc1O [Compound 86, quinuclidin-4-ylmethyl 6-hydroxy-5-methoxy-1H-indole-3-carboxylate] | – | – | 7.35 | 22.88 | 17.38 | – | – | – | – | –
quinuclidin-4-ylmethyl 6-fluoro-4-methoxy-1H-indole-3-carboxylate [Compound 82] | 412 | 357 | – | – | – | 8 | 48.22 | 433.66 | – | 2.0738

Source: US9434724B2, “Quinuclidines for modulating alpha 7 activity” (priority 2014, dated 2016)
